# Experimental data reported in patent US11044909B2, “Composition for destruction of microalgae or sphaerocarpus” (CUREARTH, INC., priority 2015, dated 2021).
# Where two headings read alike, the source gives them in different places.
# What was measured:
# Chattonella Marina [1] = assay: Microalgae-destroying effect by IC50 measurement (cell count); assay type: cell-based; settings: 24 h, read-out: IC50 Chattonella Marina
# Procedure: (§1) The IC50 value was obtained according to Equation 1: […]
# (§2) First, the above-listed microalgae were cultured in a culture flask at a temperature of about 20° C. under light conditions, and a medium used was Guillard's f/2 medium which is commonly used in the art (Guillard R R L and Keller M D. Culturing dinoflagellates. In: Spector (Ed.), Dinoflagellates. New York: Academic Press; 1984, 391442).
# (§3) After the cultured microalgae were transferred onto a 24-well plate, Chattonella Marina, Heterosigma circularisquama, Cochlodinium Polykrikoides, and Heterosigma akashiwo, which were in an exponential growth phase, were treated with Compounds 1 to 3, 5 to 10, 12, 13, 17 to 43, and 45 to 47 synthesized in Examples 1 to 3, 5 to 10, 12, 13, 17 to 43, and 45 to 47 at concentrations of 0.1 uM, 0.2 uM, 0.5 uM, 1 uM, 2 uM, and 5 uM, and then cultured for 1 day.
# (§4) Control groups were not treated with any of the compounds synthesized in the above-identified examples. After incubation, the number of cells of each alga was counted using a Burker-Tukr hemocytometer, and IC50 values were calculated according to Equation 1 using SigmaPlot Version 11.2 software (Standard curve: the four-parameter logistic curve).
# [2] = tested on: Heterocapsa Circularisquama; assay: as above; assay type: cell-based; settings: 24 h
# Procedure: as §1, §2, §3, §4
# Heterosigma Akashiwo [3] = assay: as above; assay type: cell-based; settings: 24 h, read-out: IC50 Heterosigma Akashiwo
# Procedure: as §1, §2, §3, §4
# [4] = tested on: Cochlodinium Polykrikoides; assay: as above; assay type: cell-based; settings: Margalefidinium polykrikoides, 24 h, read-out: IC50 Cochlodinium Polykrikoides
# Procedure: (§5) The IC50 value was obtained according to Equation 1:
# (§6) The algicidal activity of each compound was calculated using Equation 2: Algicidal activity (%)=(1−Tt/Ct)×100 <Equation 2>
# (§7) In Equation 2, T (treatment group) and C (control group) represent algae densities in cell counts when each compound was inoculated and was not inoculated, respectively, and t represents the number of days which had passed after the inoculation.
# as §2, §3, §4
# Microcystis aeruginosa [5] = assay: as above; assay type: cell-based; settings: Microcystis aeruginosa, 120 h, read-out: IC50 Microcystis aeruginosa
# Procedure: as §5, §6, §7, §2
# Microcystis aeruginosa was treated with Compounds 1 to 3, 5 to 10, 12, 13, 17 to 43, and 45 to 51 synthesized in Examples 1 to 3, 5 to 10, 12, 13, 17 to 43, and 45 to 51 at concentrations of 0.1 uM, 0.2 uM, 0.5 uM, 1 uM, 2 uM, 5 uM, 10 uM, 15 uM, and 20 uM and then cultured for 5 days.
# as §4
# Microcystis aeruginosa [6] = assay: Microalgae-destroying effect of Compound 2, viable cell counts; assay type: cell-based; settings: 0.5 μM, 1 μM, and 2 μM, observed for 2 days; FIG. 3
# Procedure: To investigate a microalgae-destroying effect of Compound 2 synthesized in Example 2, culture solutions of Microcystis aeruginosa (40 mL; initial population number: 100×10^4/mL) in DMSO and BG11 medium were each treated with solutions of Compound 2 at 0.5 μM, 1 μM, and 2 μM and observed for 2 days. A culture solution of the microalgae not treated with a solution of Compound 2 was used as a control group.
# Daphnia magna = assay: Acute toxicity test on Daphnia magna; assay type: in vivo; settings: 5 μM, 2 days; FIG. 4
# Procedure: An acute toxicity test was performed on Daphnia magna (water flea) using Compounds 33 and 35 synthesized in Examples 33 and 35. In particular, culture solutions of Daphnia magna (200 mL, 30 animals) in DMSO and M4 medium were treated with solutions of Compounds 33 and 35 at 5 μM, 10 μM, and 15 μM for 2 days.
# Danio rerio = assay: Acute toxicity test on Danio rerio; assay type: in vivo; settings: 15 μM, 2 weeks; FIG. 5
# Procedure: An acute toxicity test on Danio rerio (zebrafish) was performed using compounds 33 and 35 synthesized in Examples 33 and 35. In particular, 2-cm-sized Danio rerio, which had been 3 months since hatching, was acclimatized for 14 days before the start of the experiment. The Danio rerio were feed twice a day during the acclimation period. Next, solutions of Compounds 33 and […] were prepared at concentrations of 0, 5, 10, 15, 20, 25, and 30 μM. Culture solutions of the Danio rerio (10 L, initial population number: 10 zebrafish in total (1 zebrafish/L)) were treated for 2 weeks with the solutions of Compounds 33 and 35 at different concentrations to thereby perform the acute toxicity test.
# Chattonella Marina [7] = assay: Microalgae-destroying effect by surviving cells rate measurement; assay type: cell-based; settings: 1 μM, about 6 hours
# Procedure: (§8) To investigate a microalgae-destroying effect of Compound 35 synthesized in Example 35, culture solutions of Chattonella Marina, Heterosigma Circularisquama, Cochlodinium Polykrikoides, and Heterosigma akashiwo (40 mL, initial population number: about 15×10^4 to 18×10^4/mL) were each treated with a solution of Compound 35 (1 μM in dimethyl sulfoxide (DMSO) and f/2 medium) for about 6 hours. A microalgae culture solution not treated with a solution of Compound 35 was used as a control group. After the treatment, viable cell ratios of the microalgae with respect to time were measured, and it was also observed whether the microalgae were destroyed.
# [8] = tested on: Cochlodinium Polykrikoides; assay: as above; assay type: cell-based; settings: 1 μM, about 6 hours
# Procedure: as §8
# Heterosigma Akashiwo [9] = assay: as above; assay type: cell-based; settings: 1 μM, about 6 hours
# Procedure: as §8
# [10] = tested on: Heterosigma Circularisquama; assay: as above; assay type: cell-based; settings: 1 μM, about 6 hours
# Procedure: as §8
# [11] = Table 1, 3,4-dichlorobenzylamines, 0.1-5 uM, cultured 1 day
# [12] = Table 1, 3,4-dichlorobenzylamines, 0.1-5 uM, cultured 1 day, read-out: IC50 Heterocapsa Circularisquama
# [13] = Table 1, 3,4-dichlorobenzylamines, 0.1-20 uM, cultured 5 days
# [14] = Table 2, 0.1-5 uM, cultured 1 day
# [15] = Table 2, 0.1-5 uM, cultured 1 day, read-out: IC50 Heterocapsa Circulariaquama
Compound,IC50 (Chattonella Marina [1]; [11]),"IC50 [2, 12]",IC50 (Heterosigma Akashiwo [3]; [11]),"IC50 [4, 11]",IC50 (Microcystis aeruginosa [5]; [13]),IC50 (Chattonella Marina [1]; [14]),"IC50 [2, 15]",IC50 (Heterosigma Akashiwo [3]; [14]),"IC50 [4, 14]",IC50 (Microcystis aeruginosa [5]),further results
"CCN(CC)CCCNCc1ccc(Cl)c(Cl)c1 [Compound 2, N′-(3,4-Dichloro-benzyl)-N,N-diethyl-propane-1,3-diamine]",2.6 µM,3.4 µM,1.3 µM,0.327 µM,0.57 µM,–,–,–,–,–,viable cell counts of Microcystis with respect to time (Microcystis aeruginosa [6]): high algicidal effect
"Clc1ccc(CNC2CCCC2)cc1Cl [Compound 33, Cyclopentyl-(3,4-dichloro-benzyl)-amine]",0.32 µM,1.04 µM,0.243 µM,0.36 µM,19.5 µM,–,–,–,–,–,survival ratio (Daphnia magna): about 100%; survival ratio (Danio rerio): 100%
"Clc1ccc(CNCCc2ccccc2)cc1Cl [Compound 34, (3,4-Dichloro-benzyl)-phenethyl-amine]",0.46 µM,1.5 µM,0.12 µM,0.875 µM,5.97 µM,–,–,–,–,–,–
"Clc1ccc(CNC2CCCCC2)cc1Cl [Compound 35, Cyclohexyl-(3,4-dichloro-benzyl)-amine]",0.29 µM,1.14 µM,0.218 µM,0.15 µM,14.6 µM,–,–,–,–,–,viable cell ratio with respect to time (Chattonella Marina [7]; FIG. 1): decreased with time; whether the microalgae were destroyed (microscope images) (Chattonella Marina [7]; FIG. 2): destroyed; viable cell ratio with respect to time ([8]; FIG. 1): decreased with time; whether the microalgae were destroyed (microscope images) ([8]; FIG. 2): destroyed; viable cell ratio with respect to time (Heterosigma Akashiwo [9]; FIG. 1): decreased with time; whether the microalgae were destroyed (microscope images) (Heterosigma Akashiwo [9]; FIG. 2): destroyed; viable cell ratio with respect to time ([10]; FIG. 1): decreased with time; whether the microalgae were destroyed (microscope images) ([10]; FIG. 2): destroyed; survival ratio (Danio rerio): 100%
"Clc1ccc(CNC2CCCCCC2)cc1Cl [Compound 36, Cycloheptyl-(3,4-dichloro-benzyl)-amine]",0.25 µM,0.69 µM,0.263 µM,0.15 µM,3.09 µM,–,–,–,–,–,–
"c1ccc(CNCCc2ccccn2)cc1 [Compound 37, Benzyl-(2-pyridin-2-yl-ethyl)-amine]",–,–,–,–,–,0.34 µM,> 5 µM,0.13 µM,> 5 µM,> 5 µM,–
"Oc1ccccc1CNCCc1ccccn1 [Compound 38, 2-[(2-Pyridin-2-yl-ethylamino)-methyl]-phenol]",–,–,–,–,–,0.91 µM,> 5 µM,0.13 µM,> 5 µM,> 5 µM,–
"Brc1ccccc1CNCCc1ccccn1 [Compound 39, (2-Bromo-benzyl)-(2-pyridin-2-yl-ethyl)-amine]",–,–,–,–,–,–,–,–,–,> 5 µM,IC50 (Chattonella Marina [1]): 1.12 µM; IC50 ([2]; read-out: IC50 Heterocapsa Circulariaquama): > 5 µM; IC50 (Heterosigma Akashiwo [3]): 0.28 µM; IC50 [4]: > 5 µM
"Brc1cccc(CNCCc2ccccn2)c1 [Compound 40, (3-Bromo-benzyl)-(2-pyridin-2-yl-ethyl)-amine]",–,–,–,–,–,0.74 µM,> 5 µM,0.57 µM,3.5 µM,> 5 µM,–
"Brc1ccc(CNCCc2ccccn2)cc1 [Compound 41, (4-Bromo-benzyl)-(2-pyridin-2-yl-ethyl)-amine]",–,–,–,–,–,0.72 µM,> 5 µM,0.14 µM,> 5 µM,> 5 µM,–
"c1ccc(CNC2CCCCCC2)cc1 [Compound 42, Benzyl-cycloheptyl-amine]",–,–,–,–,–,0.52 µM,> 5 µM,0.15 µM,> 5 µM,> 5 µM,–
"c1ccc(CNC2CCCCC2)cc1 [Compound 43, Benzyl-cyclohexyl-amine]",–,–,–,–,–,> 5 µM,> 5 µM,0.67 µM,> 5 µM,> 5 µM,–
"Clc1ccc(CNC2CCc3ccccc32)cc1Cl (stereo not drawn) [Compound 45, (3,4-Dichloro-benzyl)-indan-1-yl-amine]",1.44 µM,2 µM,1.14 µM,0.31 µM,> 20 µM,–,–,–,–,–,–
"Clc1ccc(CNC2CCC2)cc1Cl [Compound 46, Cyclobutyl-(3,4-dichloro-benzyl)-amine]",1.13 µM,3.08 µM,0.482 µM,1.67 µM,15.8 µM,–,–,–,–,–,–
"Clc1ccc(CNC2CCCCCCC2)cc1Cl [Compound 47, Cyclooctyl-(3,4-dichloro-benzyl)-amine]",0.5 µM,1.19 µM,0.34 µM,0.1 µM,15 µM,–,–,–,–,–,–
